Test results taken from patent US4225472A, “Truncated somatostatin analogs” (American Home Products Corporation, priority 1979, dated 1980).
Positions of bridges follow the written chain, without caps; N, C: chain ends. Non-standard residues stand in square brackets, D forms with d. Residues, ends and D or L forms follow the SMILES beside them.

Key:
[1] = test system: growth hormone (GH); test: Arginine-stimulated Nembutal-anesthetized rats, blood growth hormone by radioimmunoassay; assay type: in vivo, rat; details: albino male rats, dose 100 μg/kg subcutaneous, arginine 10 min later, blood 5 min after arginine; control 488 ± 82; *p<0.05
Procedure: (§1) The product of the preceding examples illustrates the selective activity of the compounds of this invention for growth hormone and glucagon suppression in the following standard procedure:
(§2) Albino male rats are administered Nembutal intraperitoneally at a dose of 50 milligrams per kilogram. Fifteen minutes later a subcutaneous injection of the test compound or physiological saline (control) is administered. Ten minutes later 0.5 milliliters of arginine (300 milligrams per milliliter, pH 7.2) is injected into the heart. Five minutes after receipt of the arginine the rats are decapitated and blood is collected into trasylol-EDTA. An appropriate aliquot is assayed for growth hormone (GH), insulin, and glucagon by radioimmunoassay.

[2] = test system: insulin; test: Arginine-stimulated Nembutal-anesthetized rats, blood insulin by radioimmunoassay; assay type: in vivo, rat; details: albino male rats, dose 100 μg/kg subcutaneous, arginine 10 min later, blood 5 min after arginine; control 74 ± 4
Procedure: as §1, §2

[3] = test system: glucagon; test: Arginine-stimulated Nembutal-anesthetized rats, blood glucagon by radioimmunoassay; assay type: in vivo, rat; details: albino male rats, dose 100 μg/kg subcutaneous, arginine 10 min later, blood 5 min after arginine; control 133 ± 13; *p<0.05
Procedure: as §1, §2

[4] = test system: growth hormone (GH); test: Duration of activity, growth hormone level at 2 and 4 hours; assay type: in vivo; details: dose 1,000 μg/kg, *p<0.01
Description: The duration of activity of the product of Example 2 was as follows: […]

C[C@@H](O)[C@@H]1NC(=O)[C@H](CCCCN)NC(=O)[C@@H](Cc2c[nH]c3ccccc23)NC(=O)[C@H](Cc2c[nH]c3ccccc23)NC(=O)[C@H](Cc2ccccc2)NC(=O)[C@@H](N)CSSC[C@H](C(=O)O)NC(=O)[C@H](Cc2ccccc2)NC1=O [Example 2, L-Cysteinyl-L-phenylalanyl-L-tryptophyl-D-tryptophyl-L-lysyl-L-threonyl-L-phenylalanyl-D-cysteine cyclic (1-8) disulfide] (H-CFW[dW]KTF[dC]-OH; disulfide 1-8)
GH [1]: 191 ± 60 ng/mL
INS [2]: 69 ± 4 μU/ml
GLUN [3]: 60 ± 12 pg/mL
GH ([4]; 2 hours, control 369 ± 60): 60 ± 6 ng/mL
GH ([4]; 4 hours, control 354 ± 68): 75 ± 10 ng/mL
